Test [1] concerns the target Sodium channel protein type 5 subunit alpha (Homo sapiens, UniProt Q14524). In kind it is functional, cell-based.
Test [2] has as its target T1, Alpha-1A adrenergic receptor (Homo sapiens, UniProt P35348).
T1 sequence (P35348 whole entry): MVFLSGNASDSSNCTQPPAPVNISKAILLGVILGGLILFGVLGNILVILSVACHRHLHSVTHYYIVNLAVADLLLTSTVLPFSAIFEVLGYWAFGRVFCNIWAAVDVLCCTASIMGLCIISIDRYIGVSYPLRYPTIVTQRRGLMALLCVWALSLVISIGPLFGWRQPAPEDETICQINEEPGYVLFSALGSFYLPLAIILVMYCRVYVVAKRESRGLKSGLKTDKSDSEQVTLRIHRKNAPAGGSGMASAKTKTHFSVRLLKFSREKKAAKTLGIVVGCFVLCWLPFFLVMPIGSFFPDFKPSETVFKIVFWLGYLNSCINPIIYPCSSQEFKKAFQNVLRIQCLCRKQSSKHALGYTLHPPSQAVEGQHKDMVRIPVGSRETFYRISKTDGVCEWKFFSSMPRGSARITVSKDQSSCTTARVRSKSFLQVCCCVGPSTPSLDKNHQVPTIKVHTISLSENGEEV

The target of test [3] is Gamma-aminobutyric acid type B receptor subunit 1 (Homo sapiens, UniProt Q9UBS5).
Sequence of Gamma-aminobutyric acid type B receptor subunit 1 (Q9UBS5 whole entry): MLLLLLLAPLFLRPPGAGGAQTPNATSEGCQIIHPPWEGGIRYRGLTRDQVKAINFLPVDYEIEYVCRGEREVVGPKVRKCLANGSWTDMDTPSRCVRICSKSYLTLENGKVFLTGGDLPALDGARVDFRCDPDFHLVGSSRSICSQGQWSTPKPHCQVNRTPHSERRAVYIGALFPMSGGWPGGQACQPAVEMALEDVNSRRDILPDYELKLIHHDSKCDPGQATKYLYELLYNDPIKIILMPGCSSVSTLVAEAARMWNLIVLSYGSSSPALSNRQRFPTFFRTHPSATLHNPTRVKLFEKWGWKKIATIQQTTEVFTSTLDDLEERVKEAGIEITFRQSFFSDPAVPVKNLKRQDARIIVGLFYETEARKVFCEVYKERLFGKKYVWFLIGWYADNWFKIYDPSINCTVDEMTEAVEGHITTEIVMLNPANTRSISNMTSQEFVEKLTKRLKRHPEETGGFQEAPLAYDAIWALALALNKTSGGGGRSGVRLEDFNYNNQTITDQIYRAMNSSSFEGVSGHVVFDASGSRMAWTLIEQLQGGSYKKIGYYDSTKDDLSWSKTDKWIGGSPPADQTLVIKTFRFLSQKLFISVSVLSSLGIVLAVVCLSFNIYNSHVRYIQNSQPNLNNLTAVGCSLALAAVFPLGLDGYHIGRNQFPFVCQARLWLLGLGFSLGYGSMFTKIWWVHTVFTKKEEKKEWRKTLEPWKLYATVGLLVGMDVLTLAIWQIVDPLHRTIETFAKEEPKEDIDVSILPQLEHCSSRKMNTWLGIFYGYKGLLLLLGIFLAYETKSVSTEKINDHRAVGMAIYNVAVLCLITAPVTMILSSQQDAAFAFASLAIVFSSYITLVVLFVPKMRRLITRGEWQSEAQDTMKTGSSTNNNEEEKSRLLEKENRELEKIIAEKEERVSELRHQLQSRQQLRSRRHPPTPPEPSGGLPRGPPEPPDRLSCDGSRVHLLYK
In test [4] the target is T2, Alpha-2A adrenergic receptor (Homo sapiens, UniProt P08913).
T2 sequence (P08913 whole entry): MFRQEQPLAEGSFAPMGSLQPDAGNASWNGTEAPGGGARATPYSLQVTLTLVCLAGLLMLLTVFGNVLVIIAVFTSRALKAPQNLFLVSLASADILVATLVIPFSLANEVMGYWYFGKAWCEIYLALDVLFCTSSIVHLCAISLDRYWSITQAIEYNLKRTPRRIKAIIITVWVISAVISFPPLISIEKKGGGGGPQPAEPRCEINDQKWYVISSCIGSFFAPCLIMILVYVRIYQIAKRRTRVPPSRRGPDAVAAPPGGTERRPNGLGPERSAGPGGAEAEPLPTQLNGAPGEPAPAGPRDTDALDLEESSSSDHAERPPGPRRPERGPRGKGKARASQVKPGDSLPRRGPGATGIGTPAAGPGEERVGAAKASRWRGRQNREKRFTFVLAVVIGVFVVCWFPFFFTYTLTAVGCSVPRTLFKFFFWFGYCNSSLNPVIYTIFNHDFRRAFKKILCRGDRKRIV

In test [5] the target is Beta-3 adrenergic receptor (Homo sapiens, UniProt P13945).
Sequence of Beta-3 adrenergic receptor (P13945 whole entry): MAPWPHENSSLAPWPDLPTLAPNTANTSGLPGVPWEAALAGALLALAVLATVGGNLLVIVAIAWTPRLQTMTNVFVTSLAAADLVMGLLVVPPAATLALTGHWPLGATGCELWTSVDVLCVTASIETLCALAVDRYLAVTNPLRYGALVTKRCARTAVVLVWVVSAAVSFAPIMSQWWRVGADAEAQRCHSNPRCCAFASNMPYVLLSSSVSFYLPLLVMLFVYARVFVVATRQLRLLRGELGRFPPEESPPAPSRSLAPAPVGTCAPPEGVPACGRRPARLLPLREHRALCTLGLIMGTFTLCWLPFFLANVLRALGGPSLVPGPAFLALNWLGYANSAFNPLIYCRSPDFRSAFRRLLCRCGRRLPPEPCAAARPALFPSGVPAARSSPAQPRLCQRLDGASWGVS
For a further test, the target named is T3, Substance-K receptor (Homo sapiens, UniProt P21452).
T3 sequence (P21452 whole entry): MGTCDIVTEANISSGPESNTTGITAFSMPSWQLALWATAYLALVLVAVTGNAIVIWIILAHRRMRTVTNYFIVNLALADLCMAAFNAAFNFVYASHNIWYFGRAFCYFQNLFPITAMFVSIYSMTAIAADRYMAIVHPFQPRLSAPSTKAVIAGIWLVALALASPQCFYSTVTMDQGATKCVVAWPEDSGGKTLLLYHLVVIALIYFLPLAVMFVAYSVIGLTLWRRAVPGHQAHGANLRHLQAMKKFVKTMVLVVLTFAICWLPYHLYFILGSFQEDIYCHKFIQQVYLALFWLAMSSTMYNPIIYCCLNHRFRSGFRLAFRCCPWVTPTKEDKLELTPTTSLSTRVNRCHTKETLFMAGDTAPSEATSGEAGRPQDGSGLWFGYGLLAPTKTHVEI

In test [6] the target is T4, Peroxisome proliferator-activated receptor gamma (Homo sapiens, UniProt P37231).
T4 sequence (P37231 whole entry): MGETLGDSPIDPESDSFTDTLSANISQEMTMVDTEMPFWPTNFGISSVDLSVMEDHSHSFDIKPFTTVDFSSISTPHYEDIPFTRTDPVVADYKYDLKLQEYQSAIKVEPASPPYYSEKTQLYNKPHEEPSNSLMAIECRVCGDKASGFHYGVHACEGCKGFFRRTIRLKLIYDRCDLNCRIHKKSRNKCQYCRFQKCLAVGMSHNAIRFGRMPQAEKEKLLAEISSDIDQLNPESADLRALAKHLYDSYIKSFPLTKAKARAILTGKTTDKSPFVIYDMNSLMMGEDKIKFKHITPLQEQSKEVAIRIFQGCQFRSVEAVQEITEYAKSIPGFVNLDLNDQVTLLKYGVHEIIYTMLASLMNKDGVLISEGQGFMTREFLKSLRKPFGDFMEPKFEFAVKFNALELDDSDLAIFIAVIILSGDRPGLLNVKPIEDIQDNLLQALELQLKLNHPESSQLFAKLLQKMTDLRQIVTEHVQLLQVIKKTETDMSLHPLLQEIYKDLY
In kind it is functional.

Test [7] concerns the target T5, Gastric inhibitory polypeptide receptor (Homo sapiens, UniProt P48546).
T5 sequence (P48546 whole entry): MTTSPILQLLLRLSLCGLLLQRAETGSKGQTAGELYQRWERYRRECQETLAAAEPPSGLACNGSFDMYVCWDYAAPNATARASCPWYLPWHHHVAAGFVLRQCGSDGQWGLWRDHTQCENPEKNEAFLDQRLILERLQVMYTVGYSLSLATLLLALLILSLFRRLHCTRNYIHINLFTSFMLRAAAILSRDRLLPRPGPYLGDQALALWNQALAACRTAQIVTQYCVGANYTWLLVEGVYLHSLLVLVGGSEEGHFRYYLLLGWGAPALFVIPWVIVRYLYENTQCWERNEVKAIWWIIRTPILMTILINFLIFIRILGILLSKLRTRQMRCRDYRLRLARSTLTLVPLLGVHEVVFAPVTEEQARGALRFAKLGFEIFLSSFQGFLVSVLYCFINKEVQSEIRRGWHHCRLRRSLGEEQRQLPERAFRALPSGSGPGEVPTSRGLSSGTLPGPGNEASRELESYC

The target of test [8] is T6, Type-2 angiotensin II receptor (Homo sapiens, UniProt P50052).
T6 sequence (P50052 whole entry): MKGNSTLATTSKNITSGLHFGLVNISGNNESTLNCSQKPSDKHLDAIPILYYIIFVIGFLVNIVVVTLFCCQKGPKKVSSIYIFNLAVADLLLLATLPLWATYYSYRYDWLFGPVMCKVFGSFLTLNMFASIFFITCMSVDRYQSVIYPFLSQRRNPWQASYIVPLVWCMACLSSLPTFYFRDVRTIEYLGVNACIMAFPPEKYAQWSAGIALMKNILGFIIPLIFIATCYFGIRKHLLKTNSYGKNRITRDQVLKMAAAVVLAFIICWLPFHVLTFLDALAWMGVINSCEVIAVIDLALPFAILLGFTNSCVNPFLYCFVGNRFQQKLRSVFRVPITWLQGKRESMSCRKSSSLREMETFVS
In kind it is functional.

The AC50 is the concentration at which the activity in the assay is half-maximal. The low end stands for activity at low concentration, the high end for activity only at high concentration.
Further: assay procedure not described here.

Sequence of Sodium channel protein type 5 subunit alpha (Q14524 whole entry): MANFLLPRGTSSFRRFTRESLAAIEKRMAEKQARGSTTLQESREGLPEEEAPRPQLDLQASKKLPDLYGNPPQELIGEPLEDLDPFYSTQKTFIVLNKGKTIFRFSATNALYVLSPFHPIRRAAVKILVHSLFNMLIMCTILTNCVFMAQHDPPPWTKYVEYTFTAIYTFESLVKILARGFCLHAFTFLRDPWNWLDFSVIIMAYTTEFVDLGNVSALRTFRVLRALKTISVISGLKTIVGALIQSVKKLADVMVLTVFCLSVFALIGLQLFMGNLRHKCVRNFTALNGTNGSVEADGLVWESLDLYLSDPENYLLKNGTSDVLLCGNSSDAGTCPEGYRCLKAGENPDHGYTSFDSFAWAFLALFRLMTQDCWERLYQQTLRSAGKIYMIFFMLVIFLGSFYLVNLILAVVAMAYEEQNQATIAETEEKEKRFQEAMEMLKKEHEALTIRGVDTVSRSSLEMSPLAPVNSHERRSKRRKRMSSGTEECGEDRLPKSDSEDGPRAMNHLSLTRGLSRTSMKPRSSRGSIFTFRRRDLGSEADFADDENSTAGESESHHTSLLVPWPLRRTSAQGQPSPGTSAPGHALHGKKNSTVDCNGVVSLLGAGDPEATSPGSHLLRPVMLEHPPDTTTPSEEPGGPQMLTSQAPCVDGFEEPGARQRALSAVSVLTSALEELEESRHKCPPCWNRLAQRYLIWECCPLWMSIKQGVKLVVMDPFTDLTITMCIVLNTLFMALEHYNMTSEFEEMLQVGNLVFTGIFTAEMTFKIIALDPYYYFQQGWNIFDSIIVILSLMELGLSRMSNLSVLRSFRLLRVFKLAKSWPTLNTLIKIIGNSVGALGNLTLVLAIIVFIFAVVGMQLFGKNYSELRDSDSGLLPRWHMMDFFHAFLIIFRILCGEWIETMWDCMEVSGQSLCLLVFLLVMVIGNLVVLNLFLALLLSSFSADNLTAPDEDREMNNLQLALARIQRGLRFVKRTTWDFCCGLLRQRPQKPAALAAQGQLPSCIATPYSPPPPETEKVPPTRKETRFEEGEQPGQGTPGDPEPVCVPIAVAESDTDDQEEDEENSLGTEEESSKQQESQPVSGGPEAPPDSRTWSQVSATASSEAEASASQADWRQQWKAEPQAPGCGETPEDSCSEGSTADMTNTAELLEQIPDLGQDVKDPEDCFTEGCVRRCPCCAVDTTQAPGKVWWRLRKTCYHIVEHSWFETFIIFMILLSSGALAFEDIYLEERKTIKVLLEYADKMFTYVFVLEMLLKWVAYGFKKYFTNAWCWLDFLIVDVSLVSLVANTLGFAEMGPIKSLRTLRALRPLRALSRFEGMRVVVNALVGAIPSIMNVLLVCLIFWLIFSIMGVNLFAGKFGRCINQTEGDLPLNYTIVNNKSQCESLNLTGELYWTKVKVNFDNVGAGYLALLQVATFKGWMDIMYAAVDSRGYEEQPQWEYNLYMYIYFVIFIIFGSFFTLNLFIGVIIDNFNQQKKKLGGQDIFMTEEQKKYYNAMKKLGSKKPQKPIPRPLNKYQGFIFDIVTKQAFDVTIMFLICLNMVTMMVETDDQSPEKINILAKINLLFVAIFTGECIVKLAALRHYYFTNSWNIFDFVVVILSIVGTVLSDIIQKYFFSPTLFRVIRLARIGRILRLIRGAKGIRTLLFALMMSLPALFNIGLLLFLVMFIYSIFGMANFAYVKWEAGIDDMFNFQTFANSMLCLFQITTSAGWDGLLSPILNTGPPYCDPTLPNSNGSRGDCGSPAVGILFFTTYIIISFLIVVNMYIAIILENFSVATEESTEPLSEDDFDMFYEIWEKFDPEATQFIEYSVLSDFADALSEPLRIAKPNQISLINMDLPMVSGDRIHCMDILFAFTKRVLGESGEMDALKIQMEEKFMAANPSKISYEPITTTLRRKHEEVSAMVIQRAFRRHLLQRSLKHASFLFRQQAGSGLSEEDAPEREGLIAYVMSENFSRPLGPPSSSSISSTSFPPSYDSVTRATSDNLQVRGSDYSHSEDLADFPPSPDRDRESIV

Turning to `Cc1cccc(C)c1NC(=O)CC12CCCN1CCC2` [PILSICAINIDE], in test [1], the AC50 was greater than 50 µM.

Take `O=C(/C=C/c1cccc(S(=O)(=O)Nc2ccccc2)c1)NO` [BELINOSTAT]: the AC50 in [2] was greater than 30 µM; in [3], greater than 10 µM; in test [4] it was greater than 10 µM; in test [5], greater than 30 µM; on Substance-K receptor it was greater than 10 µM.

For the molecule `CC(C)c1cccc(C(C)C)c1O` [PROPOFOL], the AC50 in test [6] was greater than 30 µM.

For `CC(C)(Oc1ccc(CCNC(=O)c2ccc(Cl)cc2)cc1)C(=O)O` [BEZAFIBRATE], the concentration at half-maximal activity (AC50) in [6] was greater than 30 µM.

`C[C@H](CCC(=O)O)[C@H]1CC[C@H]2[C@@H]3[C@H](O)C[C@@H]4C[C@H](O)CC[C@]4(C)[C@H]3C[C@H](O)[C@]12C` [CHOLIC ACID] returned an AC50 in test [1] greater than 50 µM.

As to `CC(=O)O[C@]1(C(C)=O)CC[C@H]2[C@@H]3C=C(Cl)C4=CC(=O)[C@@H]5C[C@@H]5[C@]4(C)[C@H]3CC[C@@]21C` [CYPROTERONE ACETATE], the AC50 in test [4] was greater than 10 µM; in test [5] it was greater than 30 µM.

Turning to `CN(Cc1cnc2nc(N)nc(N)c2n1)c1ccc(C(=O)N[C@@H](CCC(=O)O)C(=O)O)cc1` [METHOTREXATE], the AC50 in [7] was greater than 30 µM; in test [4] it was greater than 10 µM; in test [5] it was greater than 30 µM.

As to `OC[C@H]1O[C@@H](n2cnc3c2NC=NC[C@H]3O)C[C@@H]1O` [PENTOSTATIN], in [6], the AC50 is greater than 30 µM.

As to `COc1ccc2c(C(=S)N(C)CC(=O)O)cccc2c1C(F)(F)F` [TOLRESTAT], the AC50 in [2] is greater than 30 µM.

Regarding `O=S1(=O)CCN(CN2CCS(=O)(=O)NC2)CN1` [TAUROLIDINE], the AC50 in test [2] is greater than 30 µM.

For `C[C@@H]1C[C@H]2[C@@H]3C[C@H](F)C4=CC(=O)C=C[C@]4(C)[C@@]3(F)[C@@H](O)C[C@]2(C)[C@@]1(OC(=O)c1ccco1)C(=O)SCF` [FLUTICASONE FUROATE], the AC50 (in [3]; in test [4]; at Substance-K receptor) was greater than 10 µM throughout.

The molecule `CC1=C(C(=O)OC(C)C)C(c2cccc([N+](=O)[O-])c2)C(C(=O)OC2CN(C(c3ccccc3)c3ccccc3)C2)=C(N)N1` (centres undefined) [AZELNIDIPINE] showed an AC50 in test [1] greater than 50 µM.

For the molecule `CN(C)CCCN1c2ccccc2CCc2ccccc21` [IMIPRAMINE], the AC50 in [8] is greater than 100 µM; in test [7], greater than 30 µM; in [4] it was greater than 10 µM; in test [5] it was greater than 30 µM; on Substance-K receptor, greater than 10 µM.

Consider `CN[C@@H](C)[C@@H](O)c1ccccc1` [PSEUDOEPHEDRINE], for which the AC50 in test [7] is greater than 30 µM; in test [4], greater than 10 µM; in [5] it was greater than 30 µM.

For the molecule `NC[C@H]1CC[C@H](C(=O)Oc2ccc(CCC(=O)O)cc2)CC1` [CETRAXATE], the AC50 in test [2] was greater than 30 µM.

As to `O=C(O)COCCN1CCN(C(c2ccccc2)c2ccc(Cl)cc2)CC1` (centres undefined) [CETIRIZINE], the AC50 is greater than 30 µM in [7], greater than 10 µM in test [4], greater than 30 µM in [5] and greater than 30 µM in test [1].

For `O=C(O)c1cccnc1Nc1cccc(C(F)(F)F)c1` [NIFLUMIC ACID], the concentration at half-maximal activity (AC50) in test [8] was greater than 100 µM.

`CN(C)Cc1nnc2n1-c1ccc(Cl)cc1C(c1ccccc1)=NC2` [ADINAZOLAM]: the AC50 in test [8] was greater than 100 µM.

In test [1], `CCOC(=O)C1=C(C)NC(C)=C(C(=O)OCC)C1c1ccccc1/C=C/C(=O)OC(C)(C)C` [LACIDIPINE] showed an AC50 greater than 50 µM.

Take `CN(C)C/C=C/C(=O)Nc1cc2c(Nc3ccc(F)c(Cl)c3)ncnc2cc1O[C@H]1CCOC1` [AFATINIB]: the concentration at half-maximal activity (AC50) was greater than 50 µM in test [1] and greater than 30 µM in test [6].

Turning to `CC(O)(CS(=O)(=O)c1ccc(F)cc1)C(=O)Nc1ccc(C#N)c(C(F)(F)F)c1` (centres undefined) [BICALUTAMIDE], the AC50 is greater than 30 µM in test [7]; greater than 10 µM in test [3]; greater than 10 µM in test [4]; greater than 30 µM in [5]; greater than 30 µM in test [1].

For the origin of these results see ChEMBL document CHEMBL5291721, “A preclinical secondary pharmacology resource illuminates target-adverse drug reaction associations of marketed drugs” (Nat Commun, 2023).
